Experimental data as given in ChEMBL document CHEMBL3046113, “Evaluation of fungicides and sterilants for potential application in the management of Fusarium wilt of banana” (Crop Prot, 2007).
Active and inactive are the calls of the source. The rule behind the calls is not given here.

Assays:
Fusarium odoratissimum [1] = test: Growth inhibition of Fusarium oxysporum f. sp. cubense race 4 isolate CAV 031 at 100 ug/ml after 7 days; assay type: functional, organism-based
Fusarium odoratissimum [2] = test: Growth inhibition of Fusarium oxysporum f. sp. cubense race 4 isolate CAV 031 at 10 ug/ml after 7 days; assay type: functional, organism-based
Fusarium odoratissimum [3] = test: Growth inhibition of Fusarium oxysporum f. sp. cubense race 4 isolate CAV 031 at 1 ug/ml after 7 days; assay type: functional, organism-based
Fusarium odoratissimum [4] = test: Growth inhibition of Fusarium oxysporum f. sp. cubense race 4 isolate CAV 031 at 50 ug/ml after 7 days; assay type: functional, organism-based
Fusarium odoratissimum [5] = test: Antifungal activity against Fusarium oxysporum f. sp. cubense race 4 incubated with 10^2 spore/ml for 5 min measured after 4 days; assay type: functional, organism-based
Fusarium odoratissimum [6] = test: Antifungal activity against Fusarium oxysporum f. sp. cubense race 4 at 10 times recommended dose incubated with 10^2 spore/ml for 5 min measured after 4 days; assay type: functional, organism-based
Fusarium odoratissimum [7] = test: Antifungal activity against Fusarium oxysporum f. sp. cubense race 4 incubated with 10^2 spore/ml for 5 to 30 min measured after 4 days; assay type: functional, organism-based
Fusarium odoratissimum [8] = test: Antifungal activity against Fusarium oxysporum f. sp. cubense race 4 at 0.01 times recommended dose incubated with 10^2 spore/ml for 5 min measured after 4 days; assay type: functional, organism-based
Fusarium odoratissimum [9] = test: Growth inhibition of Fusarium oxysporum f. sp. cubense race 4 isolate CAV 086 at 50 ug/ml after 7 days; assay type: functional, organism-based
Fusarium odoratissimum [10] = test: Antifungal activity against Fusarium oxysporum f. sp. cubense race 4 infected in Cavendish banana plant assessed as reduction in disease severity at 25 ug a.i./ml applied as soil drench treatment immediately after planting measured after 7 weeks in greenhouse conditions; assay type: functional; set-up: scale not given: the % may be the effect or the level left
Fusarium odoratissimum [11] = test: Antifungal activity against Fusarium oxysporum f. sp. cubense race 4 infected in Cavendish banana plant assessed as reduction in disease severity at 25 ug a.i./ml applied as root dip treatment for 10 min measured after 7 weeks in greenhouse conditions; assay type: functional; set-up: scale not given: the % may be the effect or the level left
Fusarium odoratissimum [12] = test: Growth inhibition of Fusarium oxysporum f. sp. cubense race 4 isolate CAV 086 at 1 ug/ml after 7 days; assay type: functional, organism-based
Fusarium oxysporum [13] = test: Antifungal activity against Fusarium oxysporum infected tomato plant grown in hydroponic system applied as curative treatment relative to control; assay type: functional
Fusarium oxysporum [14] = test: Antifungal activity against Fusarium oxysporum infected tomato plant grown in hydroponic system applied as preventive treatment relative to control; assay type: functional
Fusarium odoratissimum [15] = test: Growth inhibition of Fusarium oxysporum f. sp. cubense race 4 isolate CAV 086 at 10 ug/ml after 7 days; assay type: functional, organism-based
Fusarium odoratissimum [16] = test: Antifungal activity against Fusarium oxysporum f. sp. cubense race 4 infected in Cavendish banana plant assessed as reduction in disease severity at 25 ug a.i./ml applied as soil drench treatment 1 week after planting measured after 7 weeks in greenhouse conditions; assay type: functional; set-up: scale not given: the % may be the effect or the level left
Fusarium odoratissimum [17] = test: Growth inhibition of Fusarium oxysporum f. sp. cubense race 4 isolate CAV 086 at 5 ug/ml after 7 days; assay type: functional, organism-based

SMILES	growth inhibition (GI) (Fusarium odoratissimum [1])	growth inhibition (GI) (Fusarium odoratissimum [2])	growth inhibition (GI) (Fusarium odoratissimum [3])	growth inhibition (GI) (Fusarium odoratissimum [4])	Activity (Fusarium odoratissimum [5])	Activity (Fusarium odoratissimum [6])	Activity (Fusarium odoratissimum [7])	Activity (Fusarium odoratissimum [8])	growth inhibition (GI) (Fusarium odoratissimum [9])	Activity (Fusarium odoratissimum [10]) [%]	Activity (Fusarium odoratissimum [11]) [%]	growth inhibition (GI) (Fusarium odoratissimum [12])	Activity (Fusarium oxysporum [13]) [%]	Activity (Fusarium oxysporum [14]) [%]	growth inhibition (GI) (Fusarium odoratissimum [15])	Activity (Fusarium odoratissimum [16]) [%]	growth inhibition (GI) (Fusarium odoratissimum [17])
CO/N=C(/C(=O)OC)c1ccccc1COc1ccccc1C	inactive	inactive	inactive	inactive													
OCl					Dose-dependent effect	Active	Active	inactive									
CCCN(CCOc1c(Cl)cc(Cl)cc1Cl)C(=O)n1ccnc1 [PROCHLORAZ]	Active	Active	Active	Active	Dose-dependent effect	Active			Active	38.9	77.8	Active	34.4	69.9	Active	50	
CCCCNC(=O)n1c(NC(=O)OC)nc2ccccc21 [BENOMYL]	Active	Active		Active						22.2	66.7					72.2	Active
CCCC1COC(Cn2cncn2)(c2ccc(Cl)cc2Cl)O1 (stereo not drawn) [PROPICONAZOLE]	Active									44.4	75					52.8	Active
CO/C=C(/C(=O)OC)c1ccccc1Oc1cc(Oc2ccccc2C#N)ncn1	inactive	inactive	inactive	inactive													
